Measurements: US5545639A, “Method of inhibiting transformed cells” (The United States of America as represented by the …, priority 1994, dated 1996)

Experiments:
DMS 273 = test: Dose response of growth, tumor cell line; format: cell-based; details: Homo sapiens; DMS 273, small cell lung cancer; read-out: 50% Loss (50% kill)
DMS 114 = test: Dose response of growth, tumor cell line; format: cell-based; details: Homo sapiens; DMS 114, small cell lung cancer; read-out: 50% Loss (50% kill)
Protocol: Indeed, 70% of the cell lines were shown not only to experience precluded growth, but cell death, when exposed to less then 100 μM of the active ingredient.

SMILES: ClCc1ccc2ccc3ccc(CCl)nc3c2n1 [2,9-bis(chloromethyl)-1,10-phenanthroline]
- CC50 (DMS 273): > 100 µM
- CC50 (DMS 114): 7.72 µM
